Experiments:
NPBWR2 = NPBWR2 (Homo sapiens, UniProt P48146); assay: gpcrMAX PathHunter beta-arrestin
GIPR = GIPR (Homo sapiens, UniProt P48546); assay: gpcrMAX PathHunter beta-arrestin
ADRA1B = ADRA1B (Homo sapiens, UniProt P35368); assay: gpcrMAX PathHunter beta-arrestin
NPY1R = NPY1R (Homo sapiens, UniProt P25929); assay: gpcrMAX PathHunter beta-arrestin
CCR2 = CCR2 (Homo sapiens, UniProt P41597); assay: gpcrMAX PathHunter beta-arrestin
LE:K-562 = system: LE:K-562; design: method as in earlier work; conditions: NCI-60 panel; ref [4],[5],[6],[7]; cited from earlier work
DRD5 = DRD5 (Homo sapiens, UniProt P21918); assay: gpcrMAX PathHunter beta-arrestin
DRD1 = DRD1 (Homo sapiens, UniProt P21728); assay: gpcrMAX PathHunter beta-arrestin
CCR7 = CCR7 (Homo sapiens, UniProt P32248); assay: gpcrMAX PathHunter beta-arrestin
CCR9 = CCR9 (Homo sapiens, UniProt P51686); assay: gpcrMAX PathHunter beta-arrestin
LC:HOP-92 = system: LC:HOP-92; design: method as in earlier work; conditions: NCI-60 panel; ref [4],[5],[6],[7]; cited from earlier work
CCR5 = CCR5 (Homo sapiens, UniProt P51681); assay: gpcrMAX PathHunter beta-arrestin
HTR1F = HTR1F (Homo sapiens, UniProt P30939); assay: gpcrMAX PathHunter beta-arrestin
ADRA2A = ADRA2A (Homo sapiens, UniProt P08913); assay: gpcrMAX PathHunter beta-arrestin
LTB4R = LTB4R (Homo sapiens, UniProt Q15722); assay: gpcrMAX PathHunter beta-arrestin
BDKRB2 = BDKRB2 (Homo sapiens, UniProt P30411); assay: gpcrMAX PathHunter beta-arrestin
C5L2 = C5L2 (Homo sapiens, UniProt Q9P296); assay: gpcrMAX PathHunter beta-arrestin
EDG7 = EDG7 (Homo sapiens, UniProt Q9UBY5); assay: gpcrMAX PathHunter beta-arrestin
CNS:SF-539 = system: CNS:SF-539; design: method as in earlier work; conditions: NCI-60 panel; ref [4],[5],[6],[7]; cited from earlier work
TACR2 = TACR2 (Homo sapiens, UniProt P21452); assay: gpcrMAX PathHunter beta-arrestin
ADRB2 = ADRB2 (Homo sapiens, UniProt P07550); assay: gpcrMAX PathHunter beta-arrestin
RE:ACHN = system: RE:ACHN; design: method as in earlier work; conditions: NCI-60 panel; ref [4],[5],[6],[7]; cited from earlier work
MRGPRX1 = MRGPRX1 (Homo sapiens, UniProt Q96LB2); assay: gpcrMAX PathHunter beta-arrestin
LE:HL-60(TB) = system: LE:HL-60(TB); design: method as in earlier work; conditions: NCI-60 panel; ref [4],[5],[6],[7]; cited from earlier work
CNR2 = CNR2 (Homo sapiens, UniProt P34972); assay: gpcrMAX PathHunter beta-arrestin
P2RY6 = P2RY6 (Homo sapiens, UniProt Q15077); assay: gpcrMAX PathHunter beta-arrestin
EDG5 = EDG5 (Homo sapiens, UniProt O95136); assay: gpcrMAX PathHunter beta-arrestin
ADRA2C = ADRA2C (Homo sapiens, UniProt P18825); assay: gpcrMAX PathHunter beta-arrestin
OPRK1 = OPRK1 (Homo sapiens, UniProt P41145); assay: gpcrMAX PathHunter beta-arrestin
GPR103 = GPR103 (Homo sapiens, UniProt Q96P65); assay: gpcrMAX PathHunter beta-arrestin
F2R = F2R (Homo sapiens, UniProt P25116); assay: gpcrMAX PathHunter beta-arrestin
MRGPRX2 = MRGPRX2 (Homo sapiens, UniProt Q96LB1); assay: gpcrMAX PathHunter beta-arrestin
TSHR(L) = TSHR(L) (Homo sapiens, UniProt P16473); assay: gpcrMAX PathHunter beta-arrestin
GRPR = GRPR (Homo sapiens, UniProt P30550); assay: gpcrMAX PathHunter beta-arrestin
P2RY4 = P2RY4 (Homo sapiens, UniProt P51582); assay: gpcrMAX PathHunter beta-arrestin
VIPR1 = VIPR1 (Homo sapiens, UniProt P32241); assay: gpcrMAX PathHunter beta-arrestin
P2RY2 = P2RY2 (Homo sapiens, UniProt P41231); assay: gpcrMAX PathHunter beta-arrestin
NPBWR1 = NPBWR1 (Homo sapiens, UniProt P48145); assay: gpcrMAX PathHunter beta-arrestin
SSTR1 = SSTR1 (Homo sapiens, UniProt P30872); assay: gpcrMAX PathHunter beta-arrestin

P2RY2, sequence (P41231 whole entry): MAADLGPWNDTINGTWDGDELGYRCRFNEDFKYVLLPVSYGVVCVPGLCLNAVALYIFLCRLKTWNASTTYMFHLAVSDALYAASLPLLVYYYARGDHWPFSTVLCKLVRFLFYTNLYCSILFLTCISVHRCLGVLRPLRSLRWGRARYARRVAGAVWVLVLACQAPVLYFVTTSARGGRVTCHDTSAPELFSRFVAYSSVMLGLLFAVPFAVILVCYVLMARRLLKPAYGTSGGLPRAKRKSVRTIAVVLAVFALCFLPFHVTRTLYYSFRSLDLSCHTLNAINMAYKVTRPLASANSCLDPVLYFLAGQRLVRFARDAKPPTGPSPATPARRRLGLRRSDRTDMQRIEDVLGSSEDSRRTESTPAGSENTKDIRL
DRD1, sequence (P21728 whole entry): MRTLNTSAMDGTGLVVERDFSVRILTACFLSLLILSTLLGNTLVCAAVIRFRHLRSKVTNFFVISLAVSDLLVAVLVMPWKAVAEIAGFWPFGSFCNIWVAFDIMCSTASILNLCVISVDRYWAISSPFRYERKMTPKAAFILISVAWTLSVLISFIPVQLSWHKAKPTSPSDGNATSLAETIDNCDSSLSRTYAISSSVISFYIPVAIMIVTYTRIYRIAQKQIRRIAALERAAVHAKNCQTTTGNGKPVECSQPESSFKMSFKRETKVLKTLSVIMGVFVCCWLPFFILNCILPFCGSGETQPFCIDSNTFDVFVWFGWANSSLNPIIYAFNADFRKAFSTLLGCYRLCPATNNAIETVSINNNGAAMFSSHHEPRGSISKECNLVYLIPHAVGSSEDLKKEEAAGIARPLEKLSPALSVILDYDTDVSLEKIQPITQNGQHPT
MRGPRX1, sequence (Q96LB2 whole entry): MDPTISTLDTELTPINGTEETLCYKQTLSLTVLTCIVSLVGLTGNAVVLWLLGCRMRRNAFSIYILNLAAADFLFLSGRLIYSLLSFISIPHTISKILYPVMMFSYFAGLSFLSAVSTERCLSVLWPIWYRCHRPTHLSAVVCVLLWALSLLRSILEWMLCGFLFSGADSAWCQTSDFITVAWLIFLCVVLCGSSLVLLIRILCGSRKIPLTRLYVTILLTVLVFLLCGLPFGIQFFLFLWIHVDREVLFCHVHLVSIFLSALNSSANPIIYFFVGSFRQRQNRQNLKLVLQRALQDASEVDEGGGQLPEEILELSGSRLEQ
TSHR(L), sequence (P16473 21-764): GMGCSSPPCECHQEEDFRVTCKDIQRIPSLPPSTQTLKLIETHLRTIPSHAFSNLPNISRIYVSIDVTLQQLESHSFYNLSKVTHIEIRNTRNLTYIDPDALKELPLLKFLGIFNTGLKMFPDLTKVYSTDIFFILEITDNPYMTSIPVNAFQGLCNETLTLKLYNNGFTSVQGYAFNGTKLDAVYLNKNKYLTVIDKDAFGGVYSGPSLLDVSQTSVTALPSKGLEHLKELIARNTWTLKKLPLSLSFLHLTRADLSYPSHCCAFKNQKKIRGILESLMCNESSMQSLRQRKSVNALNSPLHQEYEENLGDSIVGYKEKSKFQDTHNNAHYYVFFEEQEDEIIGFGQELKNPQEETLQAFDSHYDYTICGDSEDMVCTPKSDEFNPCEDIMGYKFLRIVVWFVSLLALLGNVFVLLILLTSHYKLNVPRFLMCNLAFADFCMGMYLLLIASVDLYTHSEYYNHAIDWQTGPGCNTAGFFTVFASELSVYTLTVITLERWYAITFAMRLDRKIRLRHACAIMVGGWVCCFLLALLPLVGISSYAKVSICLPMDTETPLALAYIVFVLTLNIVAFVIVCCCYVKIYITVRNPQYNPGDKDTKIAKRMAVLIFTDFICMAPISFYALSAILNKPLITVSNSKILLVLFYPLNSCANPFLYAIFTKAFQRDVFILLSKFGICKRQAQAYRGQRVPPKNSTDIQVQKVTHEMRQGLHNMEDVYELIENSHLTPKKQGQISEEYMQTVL
MRGPRX2, sequence (Q96LB1 whole entry): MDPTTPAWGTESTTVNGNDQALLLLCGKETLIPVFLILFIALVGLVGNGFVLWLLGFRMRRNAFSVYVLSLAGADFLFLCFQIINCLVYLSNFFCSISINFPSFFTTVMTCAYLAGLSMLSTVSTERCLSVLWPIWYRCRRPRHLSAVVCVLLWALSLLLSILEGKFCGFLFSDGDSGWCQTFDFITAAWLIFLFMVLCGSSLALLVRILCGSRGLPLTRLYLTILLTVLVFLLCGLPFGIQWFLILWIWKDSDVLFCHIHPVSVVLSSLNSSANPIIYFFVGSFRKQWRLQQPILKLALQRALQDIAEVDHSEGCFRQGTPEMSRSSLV
GRPR, sequence (P30550 whole entry): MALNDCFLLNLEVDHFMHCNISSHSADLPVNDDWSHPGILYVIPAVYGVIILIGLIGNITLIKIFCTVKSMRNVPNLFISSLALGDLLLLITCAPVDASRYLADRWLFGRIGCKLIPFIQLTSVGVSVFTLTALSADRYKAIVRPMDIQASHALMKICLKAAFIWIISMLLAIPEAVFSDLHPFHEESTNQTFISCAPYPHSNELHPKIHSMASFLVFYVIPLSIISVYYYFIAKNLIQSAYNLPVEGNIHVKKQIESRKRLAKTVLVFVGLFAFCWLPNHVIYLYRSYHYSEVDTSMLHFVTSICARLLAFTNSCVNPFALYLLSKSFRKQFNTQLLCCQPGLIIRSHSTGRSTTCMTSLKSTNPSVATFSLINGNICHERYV
OPRK1, sequence (P41145 whole entry): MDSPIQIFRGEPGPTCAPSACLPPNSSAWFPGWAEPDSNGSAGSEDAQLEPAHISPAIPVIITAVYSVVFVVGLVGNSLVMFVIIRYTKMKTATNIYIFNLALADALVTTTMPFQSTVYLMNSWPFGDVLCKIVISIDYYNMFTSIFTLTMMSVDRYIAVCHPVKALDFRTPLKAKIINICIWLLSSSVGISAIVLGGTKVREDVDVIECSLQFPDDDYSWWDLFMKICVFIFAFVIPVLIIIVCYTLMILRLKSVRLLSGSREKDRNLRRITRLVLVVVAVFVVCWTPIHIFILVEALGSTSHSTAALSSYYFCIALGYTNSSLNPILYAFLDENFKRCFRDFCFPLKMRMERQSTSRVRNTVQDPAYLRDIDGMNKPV
VIPR1, sequence (P32241 31-457): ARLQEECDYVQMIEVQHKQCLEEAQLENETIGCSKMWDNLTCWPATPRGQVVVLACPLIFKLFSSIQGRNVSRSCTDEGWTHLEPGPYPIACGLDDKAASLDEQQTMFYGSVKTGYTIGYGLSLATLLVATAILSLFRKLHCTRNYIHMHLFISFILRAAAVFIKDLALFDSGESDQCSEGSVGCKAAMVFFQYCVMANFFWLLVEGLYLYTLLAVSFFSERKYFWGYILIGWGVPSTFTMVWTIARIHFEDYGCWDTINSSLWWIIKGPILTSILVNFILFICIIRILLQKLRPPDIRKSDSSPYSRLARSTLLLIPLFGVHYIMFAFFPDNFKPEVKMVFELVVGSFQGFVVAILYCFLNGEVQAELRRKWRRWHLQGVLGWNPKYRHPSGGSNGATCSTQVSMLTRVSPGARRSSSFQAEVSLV
CCR2, sequence (P41597 whole entry): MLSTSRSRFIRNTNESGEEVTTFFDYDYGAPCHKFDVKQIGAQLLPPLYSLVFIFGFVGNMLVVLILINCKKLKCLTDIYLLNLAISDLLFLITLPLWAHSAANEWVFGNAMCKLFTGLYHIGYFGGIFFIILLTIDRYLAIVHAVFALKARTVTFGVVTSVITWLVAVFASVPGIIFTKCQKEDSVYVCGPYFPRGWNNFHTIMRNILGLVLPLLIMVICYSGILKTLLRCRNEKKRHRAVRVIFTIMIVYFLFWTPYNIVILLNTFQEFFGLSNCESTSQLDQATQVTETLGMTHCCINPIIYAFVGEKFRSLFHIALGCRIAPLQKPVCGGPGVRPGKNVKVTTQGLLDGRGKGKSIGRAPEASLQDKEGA
DRD5, sequence (P21918 whole entry): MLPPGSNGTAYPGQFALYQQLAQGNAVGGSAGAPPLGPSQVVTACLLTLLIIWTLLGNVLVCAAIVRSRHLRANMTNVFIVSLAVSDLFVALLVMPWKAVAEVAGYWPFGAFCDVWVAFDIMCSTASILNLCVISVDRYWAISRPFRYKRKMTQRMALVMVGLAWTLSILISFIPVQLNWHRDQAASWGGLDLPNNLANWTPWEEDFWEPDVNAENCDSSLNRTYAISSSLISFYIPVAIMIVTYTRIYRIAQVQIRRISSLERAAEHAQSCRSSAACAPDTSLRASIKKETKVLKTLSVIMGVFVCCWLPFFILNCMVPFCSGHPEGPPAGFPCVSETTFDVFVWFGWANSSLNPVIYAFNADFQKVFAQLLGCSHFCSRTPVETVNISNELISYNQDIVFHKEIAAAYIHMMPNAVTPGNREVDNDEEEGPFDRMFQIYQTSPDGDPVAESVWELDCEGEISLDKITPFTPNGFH
EDG5, sequence (O95136 whole entry): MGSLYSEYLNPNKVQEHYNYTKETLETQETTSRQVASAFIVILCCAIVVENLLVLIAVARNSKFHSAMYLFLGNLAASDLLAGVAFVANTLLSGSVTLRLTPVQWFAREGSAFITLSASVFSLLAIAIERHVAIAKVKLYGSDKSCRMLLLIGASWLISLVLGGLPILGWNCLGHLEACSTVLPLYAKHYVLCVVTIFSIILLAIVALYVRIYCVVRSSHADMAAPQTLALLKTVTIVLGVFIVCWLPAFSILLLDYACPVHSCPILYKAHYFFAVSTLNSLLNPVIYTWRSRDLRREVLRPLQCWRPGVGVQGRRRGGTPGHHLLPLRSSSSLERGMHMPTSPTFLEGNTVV
NPBWR2, sequence (P48146 whole entry): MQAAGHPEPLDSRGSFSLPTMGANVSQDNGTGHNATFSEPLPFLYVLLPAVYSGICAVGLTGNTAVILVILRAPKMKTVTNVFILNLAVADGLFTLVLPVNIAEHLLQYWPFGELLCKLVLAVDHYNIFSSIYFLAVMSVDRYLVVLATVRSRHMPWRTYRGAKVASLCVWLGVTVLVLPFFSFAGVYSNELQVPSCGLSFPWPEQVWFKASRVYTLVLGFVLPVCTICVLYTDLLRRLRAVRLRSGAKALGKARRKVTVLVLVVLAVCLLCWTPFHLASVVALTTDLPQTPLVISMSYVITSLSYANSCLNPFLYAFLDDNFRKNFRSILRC

Q: Which inhibition at 10 µM (NPBWR2) does the source give for `Cc1c(Cl)cccc1NC(=O)c1sc2nc3c(cc2c1N)C(=O)CCC3` [Compound 1] here?
A: -5%

Q: What about the inhibition at 10 µM (GIPR) of the same compound?
A: 2%

Q: What about the inhibition at 10 µM (ADRA1B) of the same compound?
A: 11%

Q: And the inhibition at 10 µM (NPY1R)?
A: 11%

Q: What about the inhibition at 10 µM (CCR2) of the same compound?
A: -8%

Q: What about the GI50 (LE:K-562) of the same compound?
A: 0.0375 µM

Q: What about the inhibition at 10 µM (DRD5) of the same compound?
A: -31%

Q: And the inhibition at 10 µM (DRD1)?
A: 12%

Q: What about the inhibition at 10 µM (CCR7) of the same compound?
A: 34%

Q: What about the inhibition at 10 µM (CCR9) of the same compound?
A: 17%

Q: And the GI50 (LC:HOP-92)?
A: 0.0479 µM

Q: And the inhibition at 10 µM (CCR5)?
A: 11%

Q: What about the inhibition at 10 µM (HTR1F) of the same compound?
A: -21%

Q: What about the inhibition at 10 µM (ADRA2A) of the same compound?
A: 8%

Q: What about the inhibition at 10 µM (LTB4R) of the same compound?
A: 4%

Q: And the inhibition at 10 µM (BDKRB2)?
A: 1%

Q: And the inhibition at 10 µM (C5L2)?
A: -20%

Q: What about the inhibition at 10 µM (EDG7) of the same compound?
A: -8%

Q: And the GI50 (CNS:SF-539)?
A: 0.0382 µM

Q: And the inhibition at 10 µM (TACR2)?
A: 14%

Q: And the inhibition at 10 µM (ADRB2)?
A: -46%

Q: What about the GI50 (RE:ACHN) of the same compound?
A: 0.0837 µM

Q: And the inhibition at 10 µM (MRGPRX1)?
A: 6%

Q: And the GI50 (LE:HL-60(TB))?
A: 0.103 µM

Q: What about the inhibition at 10 µM (CNR2) of the same compound?
A: 16%

Q: What about the inhibition at 10 µM (P2RY6) of the same compound?
A: -17%

Q: And the inhibition at 10 µM (EDG5)?
A: -1%

Q: What about the inhibition at 10 µM (ADRA2C) of the same compound?
A: -14%

Q: And the inhibition at 10 µM (OPRK1)?
A: -162%

Q: And the inhibition at 10 µM (GPR103)?
A: -5%

Q: What about the inhibition at 10 µM (F2R) of the same compound?
A: 5%

Q: What about the inhibition at 10 µM (MRGPRX2) of the same compound?
A: -1%

Q: And the inhibition at 10 µM (TSHR(L))?
A: -24%

Q: What about the inhibition at 10 µM (GRPR) of the same compound?
A: 11%

Q: What about the inhibition at 10 µM (P2RY4) of the same compound?
A: -16%

Q: What about the inhibition at 10 µM (VIPR1) of the same compound?
A: 7%

Q: And the inhibition at 10 µM (P2RY2)?
A: -14%

Q: What about the inhibition at 10 µM (NPBWR1) of the same compound?
A: -14%

Q: What about the inhibition at 10 µM (SSTR1) of the same compound?
A: -62%

Source: paper PMC6149898, “GPCR Modulation of Thieno[2,3-b]pyridine Anti-Proliferative Agents” (Molecules : A Journal of Synthetic Chemistry and Natural …, 2017)
